Data set [1] relates to HCT-116. The experiment in a line: cells. The note with it: Homo sapiens.
Data set [2] concerns HCT-116. Nature of the data set: In vitro cytotoxicity was determined by inhibition against HCT116 cell line proliferation after 72 hours of incubation. The format is cell-based. The note with it: Homo sapiens, HCT-116, 72 h.
For data set [3], the system named is M109. The experiment in a line: In vivo cytotoxicity of intraperitoneally administered compound was determined against ip implanted murine M-109 lung carcinoma; NA means not active. The format is organism-based. The note with it: mouse.
Data set [4] concerns HCT-116. Nature of the data set: Potency relative to paclitaxel in a tubulin polymerization assay in HCT116 cell line. The format is functional, Homo sapiens.
Data set [5] deals with M109. Nature of the data set: In vivo cytotoxicity of intraperitoneally administered compound at dose 50 mgkg/inj was determined against ip implanted murine M-109 lung carcinoma. The format is organism-based. More on the design: dose mgkg, route intraperitoneal. As to conditions: mouse; call rule not given here.
The test system of data set [6] is M109. Nature of the data set: In vivo cytotoxicity of intraperitoneally administered compound at dose 32 mg/kg/inj was determined against ip implanted murine M-109 lung carcinoma. The format is organism-based. More on the design: route intraperitoneal. The note with it: mouse.
In data set [7] the test system is M109. Nature of the data set: In vivo cytotoxicity of intraperitoneally administered compound at dose 1.6 mg/kg/inj was determined against ip implanted murine M-109 lung carcinoma. The format is organism-based. On the set-up: route intraperitoneal. The note with it: mouse.
The subject of data set [8] is M109. Nature of the data set: In vivo cytotoxicity of intraperitoneally administered compound at dose 4 mg/kg/inj was determined against ip implanted murine M-109 lung carcinoma. The format is organism-based. More on the design: route intraperitoneal. The note with it: mouse.
The test system of data set [9] is M109. The experiment in a line: In vivo cytotoxicity of intraperitoneally administered compound at dose 6 mg/kg/inj was determined against ip implanted murine M-109 lung carcinoma. On the set-up: route intraperitoneal. As to conditions: mouse. The format is organism-based.
In data set [10] the test system is M109. The experiment in a line: In vivo cytotoxicity of intraperitoneally administered compound at dose 1 mg/kg/injection was determined against ip implanted murine M-109 lung carcinoma. As to conditions: mouse. On the set-up: route intraperitoneal. The format is organism-based.
Data set [11] relates to M109. Nature of the data set: In vivo cytotoxicity of intraperitoneally administered compound at dose 16 mg/kg/inj was determined against ip implanted murine M-109 lung carcinoma. The format is organism-based. More on the design: route intraperitoneal. The note with it: mouse.
The test system of data set [12] is M109. Nature of the data set: In vivo cytotoxicity of intraperitoneally administered compound at dose 25 mgkg/inj was determined against ip implanted murine M-109 lung carcinoma. On the set-up: dose mgkg, route intraperitoneal. The format is organism-based. The note with it: mouse.
The subject of data set [13] is M109. Nature of the data set: In vivo cytotoxicity of intraperitoneally administered compound at dose 3 mg/kg/inj was determined against ip implanted murine M-109 lung carcinoma. The format is organism-based. On the set-up: route intraperitoneal. As to conditions: mouse.

As for `CC(=O)O[C@H]1C(=O)[C@@]2(C)C([C@H](OC(=O)c3ccccc3)[C@]3(O)C[C@H](OC(=O)[C@H](O)C(C=C(C)C)NC(=O)OC(C)(C)C)C(C)=C1C3(C)C)[C@]1(OC(=O)C3CC3)CO[C@@H]1C[C@@H]2O` (stereo not given in full), the results for the IC50 in data set [1] and in data set [2] were 2.85 nM and 7.7 nM, respectively. The T/C entry in data set [3] was “Not Active”. Further, the Tubulin polymerization ratio in [4] is reported as 0.36.
Regarding `COC(=O)O[C@@]12CO[C@@H]1C[C@H](O)[C@@]1(C)C(=O)[C@H](OC(C)=O)C3=C(C)[C@@H](OC(=O)[C@H](O)C(NC(=O)c4ccccc4)c4ccccc4)C[C@@](O)([C@@H](OC(=O)c4ccccc4)C12)C3(C)C` (stereo not given in full), the IC50 (commonly the point on the concentration scale where inhibition reaches its midpoint) in [1] was 0.5 nM; in [2], 2 nM. Further, the Tubulin polymerization ratio in data set [4] stood at 0.41. The T/C in [5] is 161%.
For the compound `COC(=O)O[C@@]12CO[C@@H]1C[C@H](O)[C@@]1(C)C(=O)[C@H](OC(C)=O)C3=C(C)[C@@H](OC(=O)[C@H](O)C(NC(=O)OC(C)(C)C)c4ccco4)C[C@@](O)([C@@H](OC(=O)c4ccccc4)C12)C3(C)C` (stereo not given in full), the figures for the IC50 in data set [1] and in data set [2] were 0.4 nM and 1.6 nM, respectively. Moreover, in data set [4], the Tubulin polymerization ratio is recorded as 0.66. In data set [6], this compound gave a T/C of 183%.
Take `CC(=O)O[C@H]1C(=O)[C@@]2(C)C([C@H](OC(=O)c3ccccc3)[C@]3(O)C[C@H](OC(=O)[C@H](O)C(NC(=O)OC(C)(C)C)c4ccco4)C(C)=C1C3(C)C)[C@]1(OC(=O)C3CCC3)CO[C@@H]1C[C@@H]2O` (stereo not given in full): the IC50 in data set [1] is 0.48 nM; in data set [2], 1.9 nM. In [3], the T/C result is reported as “Not Active”. The Tubulin polymerization ratio in [4] stood at 0.48.
Consider `CC(=O)O[C@H]1C(=O)[C@@]2(C)C([C@H](OC(=O)c3ccccc3)[C@]3(O)C[C@H](OC(=O)[C@H](O)C(NC(=O)OC(C)(C)C)c4ccccc4)C(C)=C1C3(C)C)[C@]1(OC(=O)C3CC3)CO[C@@H]1C[C@@H]2O` (stereo not given in full), for which the IC50 in data set [1] was 0.2 nM; in [2], 0.8 nM. The compound also returned a T/C in data set [7] of 115%. In data set [4], the Tubulin polymerization ratio was determined as 0.22.
`CC(=O)O[C@H]1C(=O)[C@@]2(C)C([C@H](OC(=O)c3ccccc3)[C@]3(O)C[C@H](OC(=O)[C@H](O)C(NC(=O)OC(C)(C)C)c4ccco4)C(C)=C1C3(C)C)[C@]1(OC(=O)C3CC3)CO[C@@H]1C[C@@H]2O` (stereo not given in full): the figures for the IC50 in data set [1] and in data set [2] were 0.33 nM and 1.3 nM, respectively. Moreover, in data set [4], the Tubulin polymerization ratio is recorded as 0.33. This compound displayed a T/C in data set [8] of 100%.
`CCOC(=O)O[C@@]12CO[C@@H]1C[C@H](O)[C@@]1(C)C(=O)[C@H](OC(C)=O)C3=C(C)[C@@H](OC(=O)[C@H](O)C(NC(=O)c4ccccc4)c4ccco4)C[C@@](O)([C@@H](OC(=O)c4ccccc4)C12)C3(C)C` (stereo not given in full): the IC50 in data set [1] amounted to 0.43 nM; in [2], 1.5 nM. The T/C result in data set [3] is “Not Active”. For the same compound, in data set [4], the Tubulin polymerization ratio worked out at 0.4.
As to `CCOC(=O)O[C@@]12CO[C@@H]1C[C@H](O)[C@@]1(C)C(=O)[C@H](OC(C)=O)C3=C(C)[C@@H](OC(=O)[C@H](O)C(NC(=O)c4ccccc4)c4ccccc4)C[C@@](O)([C@@H](OC(=O)c4ccccc4)C12)C3(C)C` (stereo not given in full), the IC50 is 0.25 nM in [1] and 1 nM in data set [2]. The Tubulin polymerization ratio in [4] stood at 0.64. Besides, in [9], the T/C was determined as 142 mg kg-1 injection-1.
With `CCCC(=O)O[C@@]12CO[C@@H]1C[C@H](O)[C@@]1(C)C(=O)[C@H](OC(C)=O)C3=C(C)[C@@H](OC(=O)[C@H](O)C(NC(=O)OC(C)(C)C)c4ccco4)C[C@@](O)([C@@H](OC(=O)c4ccccc4)C12)C3(C)C` (stereo not given in full), the results for the concentration for half-maximal inhibition (IC50) in [1] and in data set [2] were 0.7 nM and 2.8 nM, respectively. This compound registered a T/C in [10] of 96 mg kg-1 injection-1. In addition, in [4], the Tubulin polymerization ratio turned out to be 0.5.
Turning to `CC(=O)O[C@H]1C(=O)[C@@]2(C)C([C@H](OC(=O)c3ccccc3)[C@]3(O)C[C@H](OC(=O)[C@H](O)C(NC(=O)c4ccccc4)c4ccco4)C(C)=C1C3(C)C)[C@]1(OC(=O)C3CCC3)CO[C@@H]1C[C@@H]2O` (stereo not given in full), the IC50 in data set [1] was determined as 0.4 nM; in [2], 1.6 nM. Moreover, the Tubulin polymerization ratio in data set [4] is recorded as 0.29. For the same compound, the T/C in data set [11] is listed as 188 mg kg-1 injection-1.
On to `CCOC(=O)O[C@@]12CO[C@@H]1C[C@H](O)[C@@]1(C)C(=O)[C@H](OC(C)=O)C3=C(C)[C@@H](OC(=O)[C@H](O)C(NC(=O)OC(C)(C)C)c4ccco4)C[C@@](O)([C@@H](OC(=O)c4ccccc4)C12)C3(C)C` (stereo not given in full), for which the IC50 in data set [1] is 0.59 nM; in data set [2] it was 2.95 nM. Moreover, the Tubulin polymerization ratio in [4] amounted to 0.3. This compound also returned a T/C in data set [8] of 144%.
Regarding `CCCC(=O)O[C@@]12CO[C@@H]1C[C@H](O)[C@@]1(C)C(=O)[C@H](OC(C)=O)C3=C(C)[C@@H](OC(=O)[C@H](O)C(NC(=O)c4ccccc4)c4ccccc4)C[C@@](O)([C@@H](OC(=O)c4ccccc4)C12)C3(C)C` (stereo not given in full), the results for the IC50 in [1] and in [2] were 0.25 nM and 1.1 nM, respectively. Moreover, the Tubulin polymerization ratio in [4] is listed as 0.61. Further, the T/C in [12] turned out to be 164 mg kg-1 injection-1.
Consider `CC(=O)O[C@H]1C(=O)[C@@]2(C)C([C@H](OC(=O)c3ccccc3)[C@]3(O)C[C@H](OC(=O)[C@H](O)C(C=C(C)C)NC(=O)c4ccccc4)C(C)=C1C3(C)C)[C@]1(OC(=O)C3CC3)CO[C@@H]1C[C@@H]2O` (stereo not given in full), for which the 50% inhibitory concentration (IC50) in [1] came out at 0.61 nM; in [2], 1.7 nM. In addition, the T/C result in data set [3] was “Not Active”. The Tubulin polymerization ratio in data set [4] worked out at 0.36.
`CC(=O)O[C@H]1C(=O)[C@@]2(C)C([C@H](OC(=O)c3ccccc3)[C@]3(O)C[C@H](OC(=O)[C@H](O)C(NC(=O)c4ccccc4)c4ccccc4)C(C)=C1C3(C)C)[C@]1(OC(=O)C3CC3)CO[C@@H]1C[C@@H]2O` (stereo not given in full): the figures for the IC50 in data set [1] and in data set [2] were 0.25 nM and 1 nM, respectively. For the same compound, the Tubulin polymerization ratio in [4] was 0.24. Also, the T/C in data set [9] came to 188 mg kg-1 injection-1.
For `CC(=O)O[C@H]1C(=O)[C@@]2(C)C([C@H](OC(=O)c3ccccc3)[C@]3(O)C[C@H](OC(=O)[C@H](O)C(NC(=O)c4ccccc4)c4ccco4)C(C)=C1C3(C)C)[C@]1(OC(=O)C3CC3)CO[C@@H]1C[C@@H]2O` (stereo not given in full), the figures for the IC50 in data set [1] and in data set [2] were 0.22 nM and 0.9 nM, respectively. The compound also displayed a T/C in data set [13] of 132 mg kg-1 injection-1. Also, the Tubulin polymerization ratio in data set [4] came to 0.33.

The values are drawn from ChEMBL document CHEMBL1153670 (Bioorg Med Chem Lett, 1995).
